Measurements reported in patent publication US10183918B2, “Oxa-azaspiro compounds having activity against pain” (LABORATORIOS DEL DR. ESTEVE S.A., priority 2015, dated 2019).

Target: T1, human σ1 receptor (Homo sapiens, UniProt Q99720)
T1 construct: expressed in transfected cells; host or cells: HEK-293 (membranes)
Experiment: Human σ1 receptor radioligand assay
Type: binding
Details: transfected HEK-293 membranes, 5 nM [3H](+)-pentazocine as radioligand
Procedure: Human σ1 Receptor Radioligand Assay
To investigate binding properties of test compounds to human σ1 receptor, transfected HEK-293 membranes and [^3H](+)-pentazocine (Perkin Elmer, NET-1056), as the radioligand, were used. The assay was carried out with 7 μg of membrane suspension, 5 nM of [^3H](+)-pentazocine in either absence or presence of either buffer or 10 μM Haloperidol for total and non-specific binding, respectively. Binding buffer contained Tris-HCl 50 mM at pH 8. Plates were incubated at 37° C. for 120 minutes. After the incubation period, the reaction mix was then transferred to Multiscreen HTS, FC plates (Millipore), filtered and plates were washed 3 times with ice-cold 10 mM Tris-HCL (pH7.4). Filters were dried and counted at approximately 40% efficiency in a MicroBeta scintillation counter (Perkin-Elmer) using EcoScint liquid scintillation cocktail

T1 sequence (Q99720 whole entry): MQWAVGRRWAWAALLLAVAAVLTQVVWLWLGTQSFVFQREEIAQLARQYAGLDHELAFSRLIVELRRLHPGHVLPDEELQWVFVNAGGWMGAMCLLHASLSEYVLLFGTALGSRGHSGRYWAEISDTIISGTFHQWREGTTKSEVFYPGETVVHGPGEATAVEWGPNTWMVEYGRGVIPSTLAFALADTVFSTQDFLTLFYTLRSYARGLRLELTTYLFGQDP

Structure (SMILES) | Ki [nM]
CCN1C[C@]2(CC[C@@H](NC)CC2)OC(C)(C)C1=O [Example 49, (6r,9r)-4-ethyl-2,2-dimethyl-9-(methylamino)-1-oxa-4-azaspiro[5.5]undecan-3-one acetate] | ≥ 500
CN(Cc1ccccc1)[C@H]1CC[C@@]2(CC1)CN(c1ccccc1)CC1(CC1)O2 [Example 19, (5s,8s)-N-benzyl-N-methyl-12-phenyl-4-oxa-12-azadispiro[2.1.5.3]tridecan-8-amine] | < 100
CN(CCc1ccccc1)[C@H]1CC[C@@]2(CC1)CN(C(=O)c1ccccc1)CC1(CC1)O2 [Example 58, ((5s,8s)-8-[methyl(phenethyl)amino]-4-oxa-12-azadispiro[2.1.5.3]tridecan-12-yl)(phenyl)methanone] | < 500
CN(Cc1ccccc1)[C@H]1CC[C@@]2(CC1)CN(C(=O)c1ccccc1)CC1(CC1)O2 [Example 45, ((5s,8s)-8-[Benzyl(methyl)amino]-4-oxa-12-azadispiro[2.1.5.3]tridecan-12-yl)(phenyl)methanone] | < 100
CCN1C[C@]2(CC[C@@H](N(C)CCc3ccccc3)CC2)OC(C)(C)C1=O [Example 56, (6r,9r)-4-ethyl-2,2-dimethyl-9-(methyl(phenethyl)amino)-1-oxa-4-azaspiro[5.5]undecan-3-one] | < 100
CN(CCc1ccccc1)[C@H]1CC[C@@]2(CC1)CN(c1ccccc1)C(=O)C1(CC1)O2 [Example 9, (5s,8s)-8-(methyl(2-phenylethyl)amino]-12-phenyl-4-oxa-12-azadispiro[2.1.5.3]tridecan-13-one] | < 500
CC(C)CCN(C)[C@H]1CC[C@]2(CC1)CN(c1ccccc1)C(=O)C1(CC1)O2 [Example 30, (5r,8r)-8-[methyl(3-methylbutyl)amino]-12-phenyl-4-oxa-12-azadispiro[2.1.5.3]tridecan-13-one] | < 100
CC(C)CN(C)[C@H]1CC[C@@]2(CC1)CN(C(=O)c1ccccc1)CC1(CC1)O2 [Example 60, ((5s,8s)-8-[isobutyl(methyl)amino]-4-oxa-12-azadispiro[2.1.5.3]tridecan-12-yl)(phenyl)methanone] | < 500
CCN1CC(C)(C)O[C@]2(CC[C@@H](N(C)Cc3ccccc3)CC2)C1 [Example 62, (6s,9s)-N-benzyl-4-ethyl-N,2,2-trimethyl-1-oxa-4-azaspiro[5.5]undecan-9-amine] | < 100
CC(C)CCN(C)[C@H]1CC[C@@]2(CC1)CN(c1ccccc1)C(=O)C1(CC1)O2 [Example 29, (5s,8s)-8-[methyl(3-methylbutyl)amino]-12-phenyl-4-oxa-12-azadispiro[2.1.5.3]tridecan-13-one] | < 500
CCN1CC2(CC2)O[C@]2(CC[C@@H](N(C)Cc3ccccc3)CC2)C1 [Example 17, (5s,8s)-N-benzyl-12-ethyl-N-methyl-4-oxa-12-azadispiro[2.1.5.3]tridecan-8-amine] | < 500
CC(C)CCN(C)[C@H]1CC[C@]2(CC1)CN(c1ccccc1)CC1(CC1)O2 [Example 32, (5r,8r)-N-rnethyl-N-(3-methylbutyl)-12-phenyl-4-oxa-12-azadispiro[2.1.5.3]tridecan-8-amine] | < 100
CCN1C[C@]2(CC[C@H](N(C)CC(C)C)CC2)OC(C)(C)C1=O [Example 54, (6s,9s)-4-ethyl-9-(isobutyl(methyl)amino)-2,2-dimethyl-1-oxa-4-azaspiro[5.5]undecan-3-one] | < 500
CCN1C[C@]2(CC[C@H](NCc3ccccc3)CC2)OC2(CC2)C1=O [Example 1, (5s,8s)-8-(benzylamino)-12-ethyl-4-oxa-12-azadispiro[2.1.5.3]tridecan-13-one] | ≥ 500
CCN1C[C@]2(CC[C@@H](N(C)Cc3ccccc3)CC2)OC2(CC2)C1=O [Example 16, (5r,8r)-8-[benzyl(methyl)amino]-12-ethyl-4-oxa-12-azadispiro[2.1.5.3]tridecan-13-one] | < 100
CCN1C[C@]2(CC[C@@H](N(C)CCC(C)C)CC2)OC(C)(C)C1=O [Example 57, (6r,9r)-4-ethyl-9-(isopentyl(methyl)amino)-2,2-dimethyl-1-oxa-4-azaspiro[5.5]undecan-3-one] | < 100
CCN1C[C@]2(CC[C@H](N(C)CCc3ccccc3)CC2)OC(C)(C)C1=O [Example 55, (6s,9s)-4-ethyl-2,2-dimethyl-9-(methyl(phenethyl)amino)-1-oxa-4-azaspiro[5.5]undecan-3-one] | < 100
CCN1C[C@]2(CC[C@H](N(C)Cc3ccccc3)CC2)OC2(CC2)C1=O [Example 5, (5s,8s)-8-[benzyl(methyl)amino]-12-ethyl-4-oxa-12-azadispiro[2.1.5.3]tridecan-13-one] | < 100
CN(CCc1ccccc1)[C@H]1CC[C@@]2(CC1)CN(Cc1ccccc1)CC1(CC1)O2 [Example 67, (5s,8s)-12-benzyl-N-methyl-N-(2-phenylethyl)-4-oxa-12-azadispiro[2.1.5.3]tridecan-8-amine] | < 100

Structure (SMILES) | Ki [nM]
O=C1N(c2ccccc2)C[C@]2(CC[C@H](NCc3ccccc3)CC2)OC12CC2 [Example 10, (5s,8s)-8-(benzylamino)-12-phenyl-4-oxa-12-azadispiro[2.1.5.3]tridecan-13-one] | ≥ 500
CN[C@H]1CC[C@@]2(CC1)CN(c1ccccc1)C(=O)C1(CC1)O2 [Example 23, (5s,8s)-8-(methylamino)-12-phenyl-4-oxa-12-azadispiro[2.1.5.3]tridecan-13-one acetate] | ≥ 500
CCN1CC2(CC2)O[C@]2(CC[C@H](N(C)CCC(C)C)CC2)C1 [Example 35, (5r,8r)-12-ethyl-N-methyl-N-(3-methylbutyl)-4-oxa-12-azadispiro[2.1.5.3]tridecan-8-amine] | < 500
CN(Cc1ccccc1)[C@H]1CC[C@]2(CC1)CN(c1ccccc1)C(=O)C1(CC1)O2 [Example 14, (5r,8r)-8-[benzyl(methyl)amino]-12-phenyl-4-oxa-12-azadispiro[2.1.5.3]tridecan-13-one] | < 500
CCN1C[C@]2(CC[C@@H](N(C)CCC(C)C)CC2)OC2(CC2)C1=O [Example 27, (5r,8r)-12-ethyl-8-[methyl(3-methylbutyl)amino]-4-oxa-12-azadispiro[2.1.5.3]tridecan-13-one] | < 500
CCN1CCO[C@]2(CC[C@@H](N(C)CCc3ccccc3)CC2)C1 [Example 61, (6s,9s)-4-ethyl-N-methyl-N-phenethyl-1-oxa-4-azaspiro[5.5]undecan-9-amine] | < 100
CC(C)CCN(C)[C@H]1CC[C@@]2(CC1)CN(C(=O)c1ccccc1)CC1(CC1)O2 [Example 59, ((5s,8s)-8-[isopentyl(methyl)amino]-4-oxa-12-azadispiro[2.1.5.3]tridecan-12-yl)(phenyl)methanone] | < 500
CN(Cc1ccccc1)[C@H]1CC[C@]2(CC1)CN(C(=O)c1ccccc1)CC1(CC1)O2 [Example 46, ((5r,8r)-8-[Benzyl(methyl)amino]-4-oxa-12-azadispiro[2.1.5.3]tridecan-12-yl)(phenyl)methanone] | < 500
CCN1CCO[C@]2(CC[C@@H](N(C)CCC(C)C)CC2)C1 [Example 63, (6s,9s)-4-ethyl-N-isopentyl-N-methyl-1-oxa-4-azaspiro[5.5]undecan-9-amine] | < 500
CN(CCc1ccccc1)[C@H]1CC[C@]2(CC1)CN(c1ccccc1)C(=O)C1(CC1)O2 [Example 15, (5r,8r)-8-[methyl(2-phenylethyl)amino]-12-phenyl-4-oxa-12-azadispiro[2.1.5.3]tridecan-13-one] | < 500
CCN1C[C@]2(CC[C@H](N(C)CCc3ccccc3)CC2)OC2(CC2)C1=O [Example 3, (5s,8s)-12-ethyl-8[methyl(2-phenylethyl)amino]-4-oxa-12-azadispiro[2.1.5.3]tridecan-13-one] | < 100
CCN1C[C@]2(CC[C@@H](NCCc3ccccc3)CC2)OC2(CC2)C1=O [Example 7, (5r,8r)-12-ethyl-8-[(2-phenylethyl)amino]-4-oxa-12-azadispiro[2.1.5.3]tridecan-13-one] | < 100
CCN1C[C@]2(CC[C@H](N(C)CCC(C)C)CC2)OCC1=O [Example 52, (6s,9s)-4-ethyl-9-(isopentyl(methyl)amino)-1-oxa-4-azaspiro[5.5]undecan-3-one] | < 500
CN(CCc1ccccc1)[C@H]1CC[C@]2(CC1)CN(c1ccccc1)CC1(CC1)O2 [Example 34, (5r,8r)-N-methyl-12-phenyl-N-(2-phenylethyl)-4-oxa-12-azadispiro[2.1.5.3]tridecan-8-amine] | < 100
CC(C)CCN(C)[C@H]1CC[C@@]2(CC1)CN(c1ccccc1)CC1(CC1)O2 [Example 31, (5s,8s)-N-methyl-N-(3-methylbutyl)-12-phenyl-4-oxa-12-azadispiro[2.1.5.3]tridecan-8-amine] | < 100
CCN1C[C@]2(CC[C@H](NC)CC2)OCC1=O [Example 47, (6s,9s)-4-ethyl-9-(methylamino)-1-oxa-4-azaspiro[5.5]undecan-3-one acetate] | ≥ 500
CCN1C[C@]2(CC[C@@H](NCc3ccccc3)CC2)OCC1=O [Example 37, (6r,9r)-9-(benzylamino)-4-ethyl-1-oxa-4-azaspiro[5.5]undecan-3-one] | ≥ 500
CCN1C[C@]2(CC[C@H](N(C)CCC(C)C)CC2)OC2(CC2)C1=O [Example 28, (5s,8s)-12-ethyl-8-[rnethyl(3-methylbutyl)amino]-4-oxa-12-azadispiro[2.1.5.3]tridecan-13-one] | < 500
CCN1C[C@]2(CC[C@H](NCc3ccccc3)CC2)OCC1=O [Example 36, (6s,9s)-9-(benzylamino)-4-ethyl-1-oxa-4-azaspiro[5.5]undecan-3-one] | ≥ 500
